Source: publication PMC12110804, “Molecular Characterization and Functional Analysis of Odorant-Binding Proteins in Ectropis grisescens” (International Journal of Molecular Sciences, 2025)
Entries after “also recorded” stand apart in the source; their conditions may differ. Read-outs that look alike come from different tables or passages of the source.

Key:
[1] = test system: GOBP2 in Ectropis obliqua; set-up: method as in PMID 29543772; conditions: host odors; cited from earlier work
EgriGOBP2 [2] = molecular target: T1, EgriGOBP2 (Ectropis grisescens, UniProt A0A977IVV0); assay: Fluorescence competitive binding assay (1-NPN displacement) with recombinant EgriGOBP2; conditions: for binding to EgriGOBP2 (in words, displacement of 1-NPN fluorescence): non-binding ligands
Protocol: The excitation wavelength was 337 nm, and the emission spectrum ranged from 370 to 550 nm. […] The binding curves were linearized using Scatchard plots, based on fluorescence intensity values relative to the maximum fluorescence emissions.
The dissociation constants (Ki) of each ligand were calculated with the following equation: Ki = [IC50]/(1 + [1-NPN]/K1-NPN).

EgriGOBP2 [3] = molecular target: T1, EgriGOBP2; assay: Binding of fluorescent probe 1-NPN to recombinant EgriGOBP2 (binding curve, Scatchard plot); conditions: 2 µM protein in 20 mM Tris-HCl pH 7.4, 1-NPN 0–16 µM, read-out: dissociation constant (Kd) of 1-NPN
Protocol: The binding affinities of target proteins were measured with an F-7000 fluorescence spectrophotometer (Hitachi, Tokyo, Japan) using a 1 cm light path quartz cuvette, and 1-N-phenyl-naphthylamine (1-NPN) was used as a fluorescent probe. The excitation wavelength was 337 nm, and the emission spectrum ranged from 370 to 550 nm. A total of 24 volatile compounds, including host volatiles and plant essential oil-derived volatiles, were selected for fluorescence competitive binding assays (Table 2). First, the binding affinities of 1-NPN to the target proteins were determined. The protein solutions (2 µM in 20 mM Tris-HCl, pH = 7.4) were titrated with 1-NPN to final concentrations ranging from 0 to 16 µM. The binding curves were linearized using Scatchard plots, based on fluorescence intensity values relative to the maximum fluorescence emissions. Next, each ligand (at concentrations of 0–16 µM, prepared at a 1 mM stock concentration) was added to the 2 µM EgriGOBP2/1-NPN mixture, and competitive binding curves were plotted based on the fluorescence intensity values from three replicates.
The dissociation constants (Ki) of each ligand were calculated with the following equation: Ki = [IC50]/(1 + [1-NPN]/K1-NPN). […]

Sitophilus zeamais = test system: Sitophilus zeamais; set-up: method as in PMID 31813390; conditions: cited from earlier work
AgamOBP5 = test system: AgamOBP5; set-up: method as in PMID 36921814; conditions: cited from earlier work
RpedOBP38 = test system: RpedOBP38; set-up: method as in PMID 39835200; conditions: plant essential oil-derived volatiles with repellent activity; cited from earlier work
CpalOBP2 = test system: CpalOBP2; set-up: method as in PMID 25810363; conditions: cited from earlier work
C. pallens = test system: C. pallens; set-up: method as in PMID 25810363; conditions: glass Y-tube olfactometer; cited from earlier work
[4] = test system: Frankliniella occidentalis, Frankliniella intonsa, and Thrips palmi Karny; set-up: method as in PMID 33346361; conditions: Y-tube olfactometer bioassays; cited from earlier work
[5] = EgriGOBP2 Ki (dash cells), “-”: no detectable Ki
[6] = EgriGOBP2 Ki, Ki = [IC50]/(1 + [1-NPN]/K1-NPN), 2 µM EgriGOBP2/1-NPN mixture, pH 7.4
[7] = Ki = [IC50]/(1 + [1-NPN]/K1-NPN), 2 µM EgriGOBP2/1-NPN mixture, pH 7.4, read-out: EgriGOBP2 Ki
[8] = displacement of 1-NPN from 2 µM EgriGOBP2/1-NPN mixture, 20 mM Tris-HCl pH 7.4, ligand 0–16 µM, read-out: EgriGOBP2 IC50
[9] = cells printed as “-”: IC50 could not be calculated, read-out: EgriGOBP2 IC50 (dash cells)
[10] = “-”: no detectable Ki, read-out: EgriGOBP2 Ki (dash cells)

T1 sequence (A0A977IVV0 entry or part of it): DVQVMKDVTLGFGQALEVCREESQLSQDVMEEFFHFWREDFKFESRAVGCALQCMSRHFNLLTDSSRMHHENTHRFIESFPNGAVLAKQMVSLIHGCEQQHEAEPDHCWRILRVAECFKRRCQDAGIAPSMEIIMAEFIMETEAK

O=Cc1ccccc1 [Benzaldehyde]
competitive binding to Ectropis obliqua GOBP2 (in words) [1]: competitively bind | IC50 (EgriGOBP2 [2]): > 16 µM | Ki (EgriGOBP2 [2]; [5]): > 14.4 µM | binding to EgriGOBP2 (in words, displacement of 1-NPN fluorescence) (EgriGOBP2 [2]): negligible binding; also recorded: did not exhibit binding affinity

OCc1ccccc1 [Benzyl alcohol]
IC50 (EgriGOBP2 [2]): 30 µM | Ki (EgriGOBP2 [2]; [6]): 27 µM

COC(=O)c1ccccc1O [Methyl salicylate]
competitive binding to Ectropis obliqua GOBP2 (in words) [1]: competitively bind | IC50 (EgriGOBP2 [2]): 17.3 µM | Ki (EgriGOBP2 [2]; [6]): 15.6 µM

c1ccc(Nc2cccc3ccccc23)cc1 [1-NPN, 1-N-phenyl-naphthylamine]
Kd (EgriGOBP2 [3]): 9.28 µM

C=CC(C)(O)CCC=C(C)CCC=C(C)C (mixture of isomers) [Nerolidol]
Ki (EgriGOBP2 [2]; [7]): 7.93 µM | IC50 (EgriGOBP2 [2]; [8]): 8.79 µM

C=CC(O)CC (centres unmarked) [1-penten-3-ol]
Ki (EgriGOBP2 [2]; [7]): 40.6 µM | IC50 (EgriGOBP2 [2]; [8]): 44.8 µM

CC(C)=CCCC(C)=CC=O (mixture of isomers) [Citral]
IC50 (EgriGOBP2 [2]): 9.12 µM | Ki (EgriGOBP2 [2]; [6]): 8.23 µM

C=CC(C)(O)CCC=C(C)C (centres unmarked) [Linalool]
IC50 (EgriGOBP2 [2]): 11.9 µM | Ki (EgriGOBP2 [2]; [6]): 10.8 µM

CC/C=C\CCOC(C)=O [Cis-3-hexenyl acetate]
Ki (EgriGOBP2 [2]; [7]): 13.1 µM | IC50 (EgriGOBP2 [2]; [8]): 14.5 µM

C=C(C)C1CC=C(C)C(=O)C1 (centres unmarked) [Carvone]
repellency to Sitophilus zeamais (in words) (Sitophilus zeamais): strongly repellent

C=CCc1ccc(O)c(OC)c1 [Eugenol]
IC50 (EgriGOBP2 [2]): 9.28 µM | Ki (EgriGOBP2 [2]; [6]): 8.38 µM

Cc1ccc(C(C)C)cc1O [Carvacrol]
binding to AgamOBP5 (in words) (AgamOBP5): strong binder | binding to RpedOBP38 (in words) (RpedOBP38): found to bind | IC50 (EgriGOBP2 [2]): 23.6 µM | Ki (EgriGOBP2 [2]; [6]): 21.3 µM

CC1=CC[C@](O)(C(C)C)CC1 [(+) -4-terpineol]
binding to RpedOBP38 (in words) (RpedOBP38): found to bind

CCCCCCO [n-hexyl alcohol]
Ki (EgriGOBP2 [2]; [7]): 21.2 µM | IC50 (EgriGOBP2 [2]; [8]): 23.5 µM

CCCCCCCCC=O [Nonanal]
IC50 (EgriGOBP2 [2]; [9]): > 16 µM | binding to EgriGOBP2 (in words, displacement of 1-NPN fluorescence) (EgriGOBP2 [2]): negligible binding; also recorded: did not exhibit binding affinity | Ki (EgriGOBP2 [2]; [10]): > 14.4 µM

CC(=O)OC/C=C(\C)CCC=C(C)C [Geranyl acetate]
Ki (EgriGOBP2 [2]; [7]): 22.3 µM | IC50 (EgriGOBP2 [2]; [8]): 24.7 µM

CCCCCCCCCC=O [Decanal]
IC50 (EgriGOBP2 [2]; [9]): > 16 µM | binding to EgriGOBP2 (in words, displacement of 1-NPN fluorescence) (EgriGOBP2 [2]): negligible binding | Ki (EgriGOBP2 [2]; [10]): > 14.4 µM

C=C(C)[C@H]1CC=C(C)C(=O)C1 [(S)-(+)-carvone]
binding affinity to EgriGOBP2 (class in words) (EgriGOBP2 [2]): strong (strong (6 µM < Ki ≤ 22 µM)) | IC50 (EgriGOBP2 [2]; [8]): 5.36 µM

CCC/C=C/C=O [E-2-hexenal]
IC50 (EgriGOBP2 [2]): > 16 µM | Ki (EgriGOBP2 [2]; [5]): > 14.4 µM | binding to EgriGOBP2 (in words, displacement of 1-NPN fluorescence) (EgriGOBP2 [2]): negligible binding; also recorded: did not exhibit binding affinity

O=C/C=C/c1ccccc1 [Cinnamaldehyde]
IC50 (EgriGOBP2 [2]): > 16 µM | Ki (EgriGOBP2 [2]; [5]): > 14.4 µM | binding to EgriGOBP2 (in words, displacement of 1-NPN fluorescence) (EgriGOBP2 [2]): did not bind

C=C(C)[C@@H]1CC=C(C)C(=O)C1 [L(-)-carvone]
binding to RpedOBP38 (in words) (RpedOBP38): found to bind | Ki (EgriGOBP2 [2]; [7]): 11.6 µM | IC50 (EgriGOBP2 [2]; [8]): 12.9 µM

CC/C=C\CCOC(=O)CCC [Cis-3-hexenyl tyrate]
binding affinity to EgriGOBP2 (class in words) (EgriGOBP2 [2]): moderate (moderate (22 µM < Ki ≤ 40 µM)) | Ki (EgriGOBP2 [2]; [7]): 18.6 µM | IC50 (EgriGOBP2 [2]; [8]): 20.6 µM

CC(C)=CCC/C(C)=C/CC/C(C)=C/CO [farnesol]
binding affinity for CpalOBP2 (in words) (CpalOBP2): strong and high binding affinities | behavioral response of C. pallens (in words) (C. pallens): significant and strong repellent behavioral responses

C=CC(C)=CCC=C(C)C [Ocimene]
binding affinity to EgriGOBP2 (class in words) (EgriGOBP2 [2]): moderate (moderate (22 µM < Ki ≤ 40 µM)) | Ki (EgriGOBP2 [2]; [7]): 18 µM | IC50 (EgriGOBP2 [2]; [8]): 19.9 µM

CC/C=C\CCOC(=O)CCCCC [Cis-3-hexenyl caproate]
Ki (EgriGOBP2 [2]; [7]): 14 µM | IC50 (EgriGOBP2 [2]; [8]): 15.5 µM

CC(=O)OCc1ccccc1 [Benzyl acetate]
Ki (EgriGOBP2 [2]; [7]): 13 µM | IC50 (EgriGOBP2 [2]; [8]): 14.3 µM

CC12CCC(CC1)C(C)(C)O2 [Eucalyptol]
repellent activity against three thrip species (in words) [4]: significant repellent activity | Ki (EgriGOBP2 [2]; [7]): < 10 µM | IC50 (EgriGOBP2 [2]; [8]): 9.36 µM

farnesene
binding affinity for CpalOBP2 (in words) (CpalOBP2): strong and high binding affinities | behavioral response of C. pallens (in words) (C. pallens): significant and strong repellent behavioral responses

C=CCc1ccc(OC)cc1 [4-allylanisole]
IC50 (EgriGOBP2 [2]): 8.1 µM | Ki (EgriGOBP2 [2]; [6]): 7.31 µM
